Active and inactive are the calls of the source. No cut-off for these calls is given here.

In data set [1] the test system is Mus musculus. In words: Toxicity in BALB/c albino mouse infected with blood trypomastigote stage of Trypanosoma cruzi assessed as increase in total bilirubin level in serum at 500 mg/kg, ip relative to control. The format is organism-based. The arrangement: dose 500 mg/kg, route intraperitoneal. The conditions noted are these: in vivo.
Data set [2] concerns Mus musculus. In words: Toxicity in BALB/c albino mouse infected with blood trypomastigote stage of Trypanosoma cruzi assessed as increase in total bilirubin level in serum at 40 mg/kg, ip administered on day 7 to 12 post-infection measured after day 150 relative to control. Format: organism-based. The arrangement: dose 40 mg/kg, route intraperitoneal. The conditions noted are these: in vivo.

The subject of data set [3] is Mus musculus. In words: Toxicity in BALB/c albino mouse infected with blood trypomastigote stage of Trypanosoma cruzi assessed as decrease in ALT/GPT level in serum at 40 mg/kg, ip administered on day 7 to 12 post-infection measured after day 150 relative to control. Particulars: in vivo. The arrangement: dose 40 mg/kg, route intraperitoneal; scale not given: the % may be the effect or the level left. The format is organism-based.

Data set [4] concerns Mus musculus. In words: Toxicity in BALB/c albino mouse infected with blood trypomastigote stage of Trypanosoma cruzi assessed as change in ALT/GPT level in serum at 25 mg/kg, ip administered on day 7 to 12 post-infection measured after day 120 relative to control. Particulars: in vivo. The arrangement: dose 25 mg/kg, route intraperitoneal. Format: organism-based.
Data set [5] has as its system Mus musculus. Description: Toxicity in BALB/c albino mouse infected with blood trypomastigote stage of Trypanosoma cruzi assessed as change in AST/GOT level in serum at 500 mg/kg, ip relative to control. The format is organism-based. The arrangement: dose 500 mg/kg, route intraperitoneal. The conditions noted are these: in vivo.
For data set [6], the system named is Mus musculus. In words: Toxicity in BALB/c albino mouse infected with blood trypomastigote stage of Trypanosoma cruzi assessed as increase in total bilirubin level in serum at 25 mg/kg, ip administered on day 7 to 12 post-infection measured after day 120 relative to control. The conditions noted are these: in vivo. The arrangement: dose 25 mg/kg, route intraperitoneal. The format is organism-based.

Data set [7] relates to Mus musculus. Description: Toxicity in BALB/c albino mouse infected with blood trypomastigote stage of Trypanosoma cruzi assessed as change in LDH level in serum at 500 mg/kg, ip relative to control. The format is organism-based. The arrangement: dose 500 mg/kg, route intraperitoneal. Particulars: in vivo.
Data set [8] has as its system Mus musculus. Description: Toxicity in BALB/c albino mouse infected with blood trypomastigote stage of Trypanosoma cruzi assessed as increase in LDH level in serum at 25 mg/kg, ip administered on day 7 to 12 post-infection measured after day 120 relative to control. The format is organism-based. The arrangement: dose 25 mg/kg, route intraperitoneal. Particulars: in vivo.

Data set [9] deals with Mus musculus. Description: Toxicity in BALB/c albino mouse infected with blood trypomastigote stage of Trypanosoma cruzi assessed as change in creatinephophokinase-MB level in serum at 40 mg/kg, ip administered on day 7 to 12 post-infection measured after day 150 relative to control. The format is organism-based. The conditions noted are these: in vivo. The arrangement: dose 40 mg/kg, route intraperitoneal.

Data set [10] relates to Mus musculus. Description: Toxicity in BALB/c albino mouse infected with blood trypomastigote stage of Trypanosoma cruzi assessed as increase in urea level in serum at 500 mg/kg, ip. Format: organism-based. The arrangement: dose 500 mg/kg, route intraperitoneal. Particulars: in vivo.
For data set [11], the system named is Trypanosoma cruzi. Description: Trypanocidal activity against blood trypomastigote stage of Trypanosoma cruzi infected in immunosuppressed BALB/c albino mouse chronic chagas disease model assessed as cyclophosphamide-induced reactivation of parasitemia at 40 mg/kg, ip administered on day 7 to 12 post-infection measured after day 150 (reference value: 98.1%). The format is functional. Particulars: route intraperitoneal.

The subject of data set [12] is Trypanosoma cruzi. In words: Trypanocidal activity against metacyclic trypomastigote stage of Trypanosoma cruzi infected in BALB/c albino mouse acute chagas disease model assessed as reduction of parasite burden at 25 mg/kg, ip administered on day 7 to 12 post-infection measured on day 14 by ELISA. The format is functional, organism-based. The arrangement: dose 25 mg/kg. For orientation: An ELISA detects its analyte on a solid surface through an enzyme-linked reagent.

A short description of data set [13]: Selectivity index, ratio of IC50 for African green monkey Vero cells to IC50 for amastigote stage of Trypanosoma cruzi IRHOD/CO/2008/SN3 infected in African green monkey Vero cells. The conditions noted are these: read-out: Ratio IC50. Format: toxicity, cell-based.
The nature of data set [14]: Selectivity index, ratio of IC50 for African green monkey Vero cells to IC50 for epimastigote stage of Trypanosoma cruzi IRHOD/CO/2008/SN3. Format: toxicity, cell-based. Particulars: read-out: Ratio IC50.
The subject of a further data set is Vero. In words: Cytotoxicity against African green monkey Vero cells assessed as cell viability after 72 hrs by propidium iodide/fluorescein diacetate staining-based flow cytometric analysis. The conditions noted are these: Chlorocebus sabaeus. On the technique in general: A flow cytometer gives signals particle by particle.
Data set [15] relates to Trypanosoma cruzi. In words: Antitrypanosomal activity against epimastigote stage of Trypanosoma cruzi IRHOD/CO/2008/SN3 assessed as mortality at IC25 after 72 hrs by TEM analysis. Format: functional, organism-based.
Data set [16] relates to Trypanosoma cruzi. In words: Antitrypanosomal activity against epimastigote stage of Trypanosoma cruzi IRHOD/CO/2008/SN3 assessed as appearance of enormous reservosomes at IC25 after 72 hrs by TEM analysis. Format: functional, organism-based.
Data set [17] concerns Trypanosoma cruzi. Description: Antitrypanosomal activity against epimastigote stage of Trypanosoma cruzi IRHOD/CO/2008/SN3 assessed as change in excreted succinate level at IC25 after 96 hrs by 1H NMR analysis relative to control. The format is functional.
Data set [18] has as its system Trypanosoma cruzi. In words: Antitrypanosomal activity against epimastigote stage of Trypanosoma cruzi IRHOD/CO/2008/SN3 assessed as change in excreted pyruvate level at IC25 after 96 hrs by 1H NMR analysis relative to control. Format: functional.
The subject of data set [19] is Trypanosoma cruzi. Description: Antitrypanosomal activity against epimastigote stage of Trypanosoma cruzi IRHOD/CO/2008/SN3 assessed as change in excreted alanine level at IC25 after 96 hrs by 1H NMR analysis relative to control. Format: functional.

Consider `CCCCNc1c(N(C)CCCN(C)C)c(=O)c1=O`, for which the Activity in the data set on Mus musculus [1] is 40%; with Mus musculus [2] it was 30%; in the data set on Mus musculus [3] it was 10%; in the data set on Mus musculus [4], under 10%; in the data set with Mus musculus [5] it was under 10%; in the data set on Mus musculus [6] it was 10%. The Activity with Mus musculus [7] is under 10%; with Mus musculus [8], 10%; in the data set with Mus musculus [9], under 10%; in the data set with Mus musculus [10], 30%; in the data set with Trypanosoma cruzi [11], 3.1%; with Trypanosoma cruzi [17] it was -26.9%. In addition, the Activity is 81.5% in the data set with Trypanosoma cruzi [18] and -18.5% with Trypanosoma cruzi [19]. In addition, the result in the data set on Trypanosoma cruzi [12], in the data set on Trypanosoma cruzi [15] and in the data set with Trypanosoma cruzi [16] was Active. In addition, the selectivity ratio was found to be 53.3 in [13] and 48.2 in data set [14]. Moreover, in the data set with Vero, the IC50 (in general, the concentration needed to halve the response being measured) was 453 µM.

The values above are taken from ChEMBL document CHEMBL3124761, “Synthesis and biological evaluation of N,N'-squaramides with high in vivo efficacy and low toxicity: toward a low-cost drug against Chagas disease” (J Med Chem, 2014).
